In brackets after ≈: the same amount, converted by molar mass.
Key:
Format in all cases: functional
Staphylococcus aureus [1] = experiment: Antibacterial activity against methicillin-resistant Staphylococcus aureus 110432 clinical isolate after 20 to 24 hrs by two-fold microdilution method
Staphylococcus aureus [2] = experiment: Antibacterial activity against methicillin-resistant Staphylococcus aureus 822030 clinical isolate after 20 to 24 hrs by two-fold microdilution method
Staphylococcus aureus [3] = experiment: Antibacterial activity against methicillin-resistant Staphylococcus aureus 1113041 clinical isolate after 20 to 24 hrs by two-fold microdilution method
Staphylococcus aureus [4] = experiment: Antibacterial activity against methicillin-resistant Staphylococcus aureus 122820-2 clinical isolate after 20 to 24 hrs by two-fold microdilution method
Staphylococcus aureus [5] = experiment: Antibacterial activity against methicillin-resistant Staphylococcus aureus 1207026 clinical isolate after 20 to 24 hrs by two-fold microdilution method
Staphylococcus aureus [6] = experiment: Antibacterial activity against methicillin-resistant Staphylococcus aureus 103054 clinical isolate after 20 to 24 hrs by two-fold microdilution method
Staphylococcus aureus [7] = experiment: Antibacterial activity against methicillin-resistant Staphylococcus aureus 519238 clinical isolate after 20 to 24 hrs by two-fold microdilution method
Staphylococcus aureus [8] = experiment: Antibacterial activity against methicillin-resistant Staphylococcus aureus 814039 clinical isolate after 20 to 24 hrs by two-fold microdilution method
Staphylococcus aureus [9] = experiment: Antibacterial activity against methicillin-resistant Staphylococcus aureus 11703 clinical isolate after 20 to 24 hrs by two-fold microdilution method
Staphylococcus aureus [10] = experiment: Antibacterial activity against methicillin-resistant Staphylococcus aureus 1026021 clinical isolate after 20 to 24 hrs by two-fold microdilution method
Staphylococcus aureus [11] = experiment: Antibacterial activity against methicillin-resistant Staphylococcus aureus 829034 clinical isolate after 20 to 24 hrs by two-fold microdilution method
Staphylococcus aureus [12] = experiment: Antibacterial activity against methicillin-resistant Staphylococcus aureus 110414 clinical isolate after 20 to 24 hrs by two-fold microdilution method
Staphylococcus aureus [13] = experiment: Antibacterial activity against methicillin-resistant Staphylococcus aureus 216054 clinical isolate after 20 to 24 hrs by two-fold microdilution method
Staphylococcus aureus [14] = experiment: Antibacterial activity against methicillin-resistant Staphylococcus aureus 504008 clinical isolate after 20 to 24 hrs by two-fold microdilution method
Staphylococcus aureus [15] = experiment: Antibacterial activity against methicillin-resistant Staphylococcus aureus 1215028 clinical isolate after 20 to 24 hrs by two-fold microdilution method
Staphylococcus aureus [16] = experiment: Antibacterial activity against methicillin-resistant Staphylococcus aureus 102849 clinical isolate after 20 to 24 hrs by two-fold microdilution method
Staphylococcus aureus [17] = experiment: Potency index, ratio of vancomycin MIC to test compound MIC for […] Staphylococcus aureus ATCC 25923
Staphylococcus aureus [18] = experiment: Potency index, ratio of vancomycin MIC50 to test compound MIC50 for methicillin-resistant Staphylococcus aureus
Staphylococcus aureus [19] = experiment: Potency index, ratio of vancomycin MIC90 to test compound MIC90 for methicillin-resistant Staphylococcus aureus

With `O=C1c2cccnc2C(=O)c2c1c(C(=O)OCCCCN1CCOCC1)c1ccc(Br)cn21` the MIC (Staphylococcus aureus [1]) was 0.25 µg/mL (≈ 0.488 µM), the MIC (Staphylococcus aureus [2]) was 0.5 µg/mL (≈ 0.976 µM) and the MIC (Staphylococcus aureus [3]) was 0.5 µg/mL (≈ 0.976 µM). For the same compound, the MIC (Staphylococcus aureus [4]) was 0.125 µg/mL (≈ 0.244 µM), the MIC (Staphylococcus aureus [5]) was 0.5 µg/mL (≈ 0.976 µM) and the MIC (Staphylococcus aureus [6]) was 0.5 µg/mL (≈ 0.976 µM). It also gave an MIC (Staphylococcus aureus [7]) of 0.5 µg/mL (≈ 0.976 µM), an MIC (Staphylococcus aureus [8]) of 0.25 µg/mL (≈ 0.488 µM) and an MIC (Staphylococcus aureus [9]) of 0.5 µg/mL (≈ 0.976 µM). For the same compound, the MIC (Staphylococcus aureus [10]) was 16 µg/mL (≈ 31.2 µM), the MIC (Staphylococcus aureus [11]) was 0.5 µg/mL (≈ 0.976 µM) and the MIC (Staphylococcus aureus [12]) was 0.5 µg/mL (≈ 0.976 µM). The MIC (Staphylococcus aureus [13]) was 0.063 µg/mL (≈ 0.123 µM), the MIC (Staphylococcus aureus [14]) was 0.25 µg/mL (≈ 0.488 µM) and the MIC (Staphylococcus aureus [15]) was 0.5 µg/mL (≈ 0.976 µM). The MIC (Staphylococcus aureus [16]) was 0.5 µg/mL (≈ 0.976 µM).

With `O=C1c2cccnc2C(=O)c2c1c(C(=O)OCCCCCN1CCOCC1)c1ccc(Br)cn21` the MIC (Staphylococcus aureus [1]) was at most 0.0078 µg/mL, the MIC (Staphylococcus aureus [2]) was 0.031 µg/mL (≈ 0.0589 µM) and the MIC (Staphylococcus aureus [3]) was at most 0.0078 µg/mL. The MIC (Staphylococcus aureus [4]) was 0.031 µg/mL (≈ 0.0589 µM), the MIC (Staphylococcus aureus [5]) was at most 0.0078 µg/mL and the MIC (Staphylococcus aureus [6]) was at most 0.0078 µg/mL. The MIC (Staphylococcus aureus [7]) was 0.125 µg/mL (≈ 0.237 µM), the MIC (Staphylococcus aureus [8]) was 0.125 µg/mL (≈ 0.237 µM) and the MIC (Staphylococcus aureus [9]) was 0.063 µg/mL (≈ 0.12 µM). The MIC (Staphylococcus aureus [10]) was 16 µg/mL (≈ 30.4 µM), the MIC (Staphylococcus aureus [11]) was 0.125 µg/mL (≈ 0.237 µM) and the MIC (Staphylococcus aureus [12]) was 0.031 µg/mL (≈ 0.0589 µM). The MIC (Staphylococcus aureus [13]) was 0.063 µg/mL (≈ 0.12 µM), the MIC (Staphylococcus aureus [14]) was 0.063 µg/mL (≈ 0.12 µM) and the MIC (Staphylococcus aureus [15]) was at most 0.0078 µg/mL. For the same compound, the MIC (Staphylococcus aureus [16]) was 0.063 µg/mL (≈ 0.12 µM).

In the case of `CN(C)CCCCCOC(=O)c1c2c(n3cc(Br)ccc13)C(=O)c1ncccc1C2=O`, the MIC (Staphylococcus aureus [1]) is reported as 0.5 µg/mL (≈ 1.03 µM), the MIC (Staphylococcus aureus [2]) is reported as 0.5 µg/mL (≈ 1.03 µM) and the MIC (Staphylococcus aureus [3]) is reported as 0.5 µg/mL (≈ 1.03 µM). For the same compound, the MIC (Staphylococcus aureus [4]) was 0.125 µg/mL (≈ 0.258 µM), the Ratio (Staphylococcus aureus [17]) was 256 and the MIC (Staphylococcus aureus [5]) was 0.125 µg/mL (≈ 0.258 µM). The MIC (Staphylococcus aureus [6]) was 0.5 µg/mL (≈ 1.03 µM), the MIC (Staphylococcus aureus [7]) was 1 µg/mL (≈ 2.06 µM) and the MIC (Staphylococcus aureus [8]) was 0.5 µg/mL (≈ 1.03 µM). The MIC (Staphylococcus aureus [9]) was 0.5 µg/mL (≈ 1.03 µM), the MIC (Staphylococcus aureus [10]) was 16 µg/mL (≈ 33 µM) and the MIC (Staphylococcus aureus [11]) was 0.5 µg/mL (≈ 1.03 µM). For the same compound, the MIC (Staphylococcus aureus [12]) was 0.5 µg/mL (≈ 1.03 µM), the MIC (Staphylococcus aureus [13]) was 0.25 µg/mL (≈ 0.516 µM) and the MIC (Staphylococcus aureus [14]) was 0.5 µg/mL (≈ 1.03 µM). It also gave an MIC (Staphylococcus aureus [15]) of 0.125 µg/mL (≈ 0.258 µM) and an MIC (Staphylococcus aureus [16]) of 0.25 µg/mL (≈ 0.516 µM).

`CN1CCN(CCCCCCOC(=O)c2c3c(n4cc(Br)ccc24)C(=O)c2ncccc2C3=O)CC1` showed an MIC (Staphylococcus aureus [1]) of 0.125 µg/mL (≈ 0.226 µM), an MIC (Staphylococcus aureus [2]) of 0.25 µg/mL (≈ 0.452 µM) and an MIC (Staphylococcus aureus [3]) of 0.125 µg/mL (≈ 0.226 µM). For the same compound, the MIC (Staphylococcus aureus [4]) was 0.063 µg/mL (≈ 0.114 µM), the Ratio (Staphylococcus aureus [17]) was 256 and the MIC (Staphylococcus aureus [5]) was 0.063 µg/mL (≈ 0.114 µM). It also gave an MIC (Staphylococcus aureus [6]) of 0.031 µg/mL (≈ 0.056 µM), an MIC (Staphylococcus aureus [7]) of 0.25 µg/mL (≈ 0.452 µM) and an MIC (Staphylococcus aureus [8]) of 0.5 µg/mL (≈ 0.903 µM). For the same compound, the MIC (Staphylococcus aureus [9]) was 0.25 µg/mL (≈ 0.452 µM), the MIC (Staphylococcus aureus [10]) was 16 µg/mL (≈ 28.9 µM) and the MIC (Staphylococcus aureus [11]) was 0.5 µg/mL (≈ 0.903 µM). For the same compound, the MIC (Staphylococcus aureus [12]) was 0.125 µg/mL (≈ 0.226 µM), the MIC (Staphylococcus aureus [13]) was 0.125 µg/mL (≈ 0.226 µM) and the MIC (Staphylococcus aureus [14]) was 0.125 µg/mL (≈ 0.226 µM). For the same compound, the MIC (Staphylococcus aureus [15]) was 0.063 µg/mL (≈ 0.114 µM) and the MIC (Staphylococcus aureus [16]) was 0.125 µg/mL (≈ 0.226 µM).

For `O=C1c2cccnc2C(=O)c2c1c(C(=O)OCCCCCCN1CCCCC1)c1ccc(Br)cn21`, the MIC (Staphylococcus aureus [1]) was 0.063 µg/mL (≈ 0.117 µM), the MIC (Staphylococcus aureus [2]) was 0.125 µg/mL (≈ 0.232 µM) and the MIC (Staphylococcus aureus [3]) was 0.031 µg/mL (≈ 0.0576 µM). The Ratio (Staphylococcus aureus [18]) was 16, the MIC (Staphylococcus aureus [4]) was 0.063 µg/mL (≈ 0.117 µM) and the MIC (Staphylococcus aureus [5]) was 0.063 µg/mL (≈ 0.117 µM). It also gave an MIC (Staphylococcus aureus [6]) of 0.031 µg/mL (≈ 0.0576 µM), an MIC (Staphylococcus aureus [7]) of 0.125 µg/mL (≈ 0.232 µM) and an MIC (Staphylococcus aureus [8]) of 0.25 µg/mL (≈ 0.464 µM). It also gave an MIC (Staphylococcus aureus [9]) of 0.063 µg/mL (≈ 0.117 µM), an MIC (Staphylococcus aureus [10]) of 16 µg/mL (≈ 29.7 µM) and an MIC (Staphylococcus aureus [11]) of 0.25 µg/mL (≈ 0.464 µM). For the same compound, the Ratio (Staphylococcus aureus [19]) was 16, the MIC (Staphylococcus aureus [12]) was 0.031 µg/mL (≈ 0.0576 µM) and the MIC (Staphylococcus aureus [13]) was at most 0.0078 µg/mL. For the same compound, the MIC (Staphylococcus aureus [14]) was 0.063 µg/mL (≈ 0.117 µM), the MIC (Staphylococcus aureus [15]) was 0.063 µg/mL (≈ 0.117 µM) and the MIC (Staphylococcus aureus [16]) was 0.063 µg/mL (≈ 0.117 µM).

Compound `O=C1c2cccnc2C(=O)c2c1c(C(=O)OCCCCCCN1CCOCC1)c1ccc(Br)cn21` has an MIC (Staphylococcus aureus [1]) of at most 0.0078 µg/mL, an MIC (Staphylococcus aureus [2]) of at most 0.0078 µg/mL and an MIC (Staphylococcus aureus [3]) of at most 0.0078 µg/mL. It also gave an MIC (Staphylococcus aureus [4]) of at most 0.0078 µg/mL, a Ratio (Staphylococcus aureus [17]) of 256 and an MIC (Staphylococcus aureus [5]) of at most 0.0078 µg/mL. The MIC (Staphylococcus aureus [6]) was at most 0.0078 µg/mL, the MIC (Staphylococcus aureus [7]) was at most 0.0078 µg/mL and the MIC (Staphylococcus aureus [8]) was at most 0.0078 µg/mL. It also gave an MIC (Staphylococcus aureus [9]) of at most 0.0078 µg/mL, an MIC (Staphylococcus aureus [10]) of at most 0.0078 µg/mL and an MIC (Staphylococcus aureus [11]) of at most 0.0078 µg/mL. It also gave an MIC (Staphylococcus aureus [12]) of at most 0.0078 µg/mL, an MIC (Staphylococcus aureus [13]) of at most 0.0078 µg/mL and an MIC (Staphylococcus aureus [14]) of at most 0.0078 µg/mL. For the same compound, the MIC (Staphylococcus aureus [15]) was at most 0.0078 µg/mL and the MIC (Staphylococcus aureus [16]) was at most 0.0078 µg/mL.
